Experimental data reported in US4468511A, “C-20- And C-23-Modified macrolide derivatives” (Eli Lilly and Company, priority 1983, dated 1984).
Converted amounts (≈) assume the structure as drawn. Like-named read-outs stand apart in the source and are kept apart here.

Legend:
Escherichia coli TEM = assay: MIC, standard agar-dilution assay; format: cell-based; conditions: agar-dilution; Escherichia coli TEM; read-out: MIC
Procedure, shortened: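 Minimum inhibitory concentrations against Escherichia coli were measured with a standard agar-dilution method. The result for each derivative is the lowest concentration that inhibits bacterial growth, given in ug/mL.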

[1] = system: Streptococcus pyogenes C203; assay: MIC, standard agar-dilution assay; format: cell-based
Procedure: (§1) Certain of the derivatives are active against some gram-negative bacteria, such as Pasteurella species. The MIC's in Table II were determined by standard agar-dilution assays. The MIC's in Table III were obtained using a conventional broth-dilution microtiter test.

[2] = system: Streptococcus Group D X66; assay: MIC, standard agar-dilution assay; format: cell-based; conditions: agar-dilution; Streptococcus Group D X66; read-out: MIC
Procedure: as §1

[3] = system: Staphylococcus aureus V41; assay: MIC, standard agar-dilution assay; format: cell-based; conditions: Staphylococcus aureus, V41
Procedure: as §1

Escherichia coli EC14 = assay: MIC, standard agar-dilution assay; format: cell-based; conditions: agar-dilution; Escherichia coli EC14; read-out: MIC
Procedure: as §1

[4] = system: Klebsiella pneumoniae KAE; assay: MIC, standard agar-dilution assay; format: cell-based; conditions: agar-dilution; Klebsiella pneumoniae KAE; read-out: MIC
Procedure, shortened: (§2)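 Agar plates containing graded compound levels gave the Klebsiella value. Graded broth dilutions in microtiter plates gave the Pasteurella and Mycoplasma values.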

[5] = system: Staphylococcus aureus X1.1; assay: MIC, standard agar-dilution assay; format: cell-based; conditions: Staphylococcus aureus, X1.1
Procedure, shortened: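 Minimum inhibitory concentration against Staphylococcus aureus strain X1.1 was measured with a standard agar-dilution method. The result is reported as the MIC in ug/mL, i.e. the lowest compound concentration in agar that prevents visible growth of this organism.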

[6] = system: Streptococcus pyogenes 9960; assay: MIC, standard agar-dilution assay; format: cell-based; conditions: agar-dilution, Streptococcus 9960, read-out: MIC
Procedure: as §1

[7] = system: Klebsiella pneumoniae X26; assay: MIC, standard agar-dilution assay; format: cell-based
Procedure, shortened: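 Broth microdilution MICs cover P. hemolytica, P. multocida and M. gallisepticum. The agar-dilution MIC covers K. pneumoniae only.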

Streptococcus sp. 80 = assay: MIC, conventional broth-dilution microtiter test; format: cell-based
Procedure: as §1

[8] = system: Pasteurella multocida 60A; assay: MIC, conventional broth-dilution microtiter test; format: cell-based; conditions: broth-dilution microtiter; Pasteurella multocida 60A, Avian isolate; read-out: MIC
Procedure, shortened: as §2

Mycoplasma synoviae = assay: MIC, conventional broth-dilution microtiter test; format: cell-based; conditions: Mycoplasmopsis synoviae; broth-dilution microtiter; Mycoplasma synoviae; read-out: MIC
Procedure, shortened: (§3)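 MICs for the two Pasteurella strains and the Mycoplasma strain were read from a broth-dilution microtiter test. The Klebsiella strain was tested on agar instead.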

[9] = system: Pasteurella multocida 68C; assay: MIC, conventional broth-dilution microtiter test; format: cell-based
Procedure, shortened: as §2

Mycoplasma gallisepticum = assay: MIC, conventional broth-dilution microtiter test; format: cell-based; conditions: Mycoplasmoides gallisepticum
Procedure, shortened: as §2

[10] = system: Mycoplasma gallisepticum 41313; assay: MIC, conventional broth-dilution microtiter test; format: cell-based; conditions: Mycoplasmoides gallisepticum
Procedure, shortened: as §2

[11] = system: Pasteurella hemolytica 41D; assay: MIC, conventional broth-dilution microtiter test; format: cell-based; conditions: broth-dilution microtiter; Pasteurella hemolytica 41D; read-out: MIC
Procedure, shortened: as §2

[12] = system: Pasteurella hemolytica 23C; assay: MIC, conventional broth-dilution microtiter test; format: cell-based; conditions: broth-dilution microtiter; Pasteurella hemolytica 23C; read-out: MIC
Procedure, shortened: as §2

[13] = system: Pasteurella multocida 17E; assay: MIC, conventional broth-dilution microtiter test; format: cell-based; conditions: broth-dilution microtiter; Pasteurella multocida 17E, Bovine isolate; read-out: MIC
Procedure, shortened: as §2

Staphylococcus aureus = assay: MIC, conventional broth-dilution microtiter test; format: cell-based; conditions: broth-dilution microtiter, read-out: MIC
Procedure: as §1

[14] = system: Pasteurella multocida 22A; assay: MIC, conventional broth-dilution microtiter test; format: cell-based
Procedure, shortened: as §2

[15] = system: Pasteurella hemolytica 22C; assay: MIC, conventional broth-dilution microtiter test; format: cell-based; conditions: broth-dilution microtiter; Pasteurella hemolytica 22C; read-out: MIC
Procedure, shortened: as §2

[16] = system: Pasteurella multocida 40G; assay: MIC, conventional broth-dilution microtiter test; format: cell-based
Procedure, shortened: as §2

[17] = system: Mycoplasma gallisepticum 34159; assay: MIC, conventional broth-dilution microtiter test; format: cell-based; conditions: Mycoplasmoides gallisepticum
Procedure, shortened: as §2

Mycoplasma hyorhinis = assay: MIC, conventional broth-dilution microtiter test; format: cell-based; conditions: broth-dilution microtiter; Mycoplasma hyorhinis; read-out: MIC
Procedure, shortened: as §3

[18] = system: Staphylococcus epidermidis EPI1; assay: microbe, parasite or virus in culture; format: cell-based
Procedure: (§4) The MIC's in Table II were determined by standard agar-dilution assays. The MIC's in Table III were obtained using a conventional broth-dilution microtiter test.

[19] = system: Staphylococcus aureus S13E; assay: microbe, parasite or virus in culture; format: cell-based
Procedure: as §4

[20] = system: Streptococcus pyogenes C203; assay: Protection of mice experimentally infected with S. pyogenes C203; format: in vivo; conditions: mg/kg × 2, doses given 1 and 4 hours postinfection
Procedure: Some of the derivatives of this invention have shown in vivo antimicrobial activity against experimentally-induced infections in laboratory animals. When two doses of test compound were administered to mice experimentally infected with S. pyogenes C203, the activity observed was measured as an ED50 value [effective dose in mg/kg to protect 50% of the test animals: see Warren Wick, et al., J. Bacteriol. 81, 233-235 (1961)].

[21] = system: Haemophilus influenzae C.L.; assay: MIC, standard agar-dilution assay; format: cell-based
Procedure: as §4

[22] = system: Haemophilus influenzae 76; assay: MIC, standard agar-dilution assay; format: cell-based
Procedure: as §4

[23] = system: Staphylococcus epidermidis EPI2; assay: MIC, standard agar-dilution assay; format: cell-based; conditions: Staphylococcus epidermidis, EPI2
Procedure: as §4

[24] = system: Staphylococcus aureus X400; assay: MIC, standard agar-dilution assay; format: cell-based; conditions: Staphylococcus aureus, X400
Procedure: as §4

[25] = system: Streptococcus pneumoniae Park I; assay: MIC, standard agar-dilution assay; format: cell-based; conditions: Streptococcus pneumoniae
Procedure: as §1

| Structure (SMILES) | MIC (Escherichia coli TEM) | MIC [2] | MIC [3] | MIC (Escherichia coli EC14) | MIC [4] | MIC [5] | MIC [6] | MIC [8] | MIC (Mycoplasma synoviae) | MIC [11] | MIC [12] | MIC [13] | MIC (Staphylococcus aureus) | MIC [15] | MIC (Mycoplasma hyorhinis) | MIC [19] | MIC [23] | MIC [24] | also measured |
| --- | --- | --- | --- | --- | --- | --- | --- | --- | --- | --- | --- | --- | --- | --- | --- | --- | --- | --- | --- |
| CCC1CC(C)C(=O)C=CC(C)=CC(COc2cccc(OC)c2OC)C(CC)OC(=O)CC(O)C(C)C1OC1OC(C)C(O)C(N(C)C)C1O (stereo not drawn) [Compound 47, 23-O-(2,3-Dimethoxyphenyl)-20-deoxy-20-dihydro-OMT] | 128 µg/mL (≈ 178 µM) | 0.25 µg/mL (≈ 0.347 µM) | 0.25 µg/mL (≈ 0.347 µM) | > 128 µg/mL | > 128 µg/mL | 0.25 µg/mL (≈ 0.347 µM) | 0.25 µg/mL (≈ 0.347 µM) | 25 µg/mL (≈ 34.7 µM) | 6.25 µg/mL (≈ 8.68 µM) | 25 µg/mL (≈ 34.7 µM) | 25 µg/mL (≈ 34.7 µM) | 25 µg/mL (≈ 34.7 µM) | 3.12 µg/mL (≈ 4.33 µM) | 25 µg/mL (≈ 34.7 µM) | 25 µg/mL (≈ 34.7 µM) | 0.25 µg/mL (≈ 0.347 µM) | 0.25 µg/mL (≈ 0.347 µM) | 0.25 µg/mL (≈ 0.347 µM) | MIC ([1]; agar-dilution, Streptococcus pyogenes C203, read-out: MIC): 0.25 µg/mL (≈ 0.347 µM); MIC ([7]; Klebsiella pneumoniae, X26): 4 µg/mL (≈ 5.56 µM); MIC (Streptococcus sp. 80; Streptococcus, SP.80): 1.56 µg/mL (≈ 2.17 µM); MIC ([9]; Pasteurella multocida, 68C): 12.5 µg/mL (≈ 17.4 µM); MIC (Mycoplasma gallisepticum): 1.56 µg/mL (≈ 2.17 µM); MIC [10]; 41313: 50 µg/mL (≈ 69.5 µM); MIC ([14]; Pasteurella multocida, 22A): 50 µg/mL (≈ 69.5 µM); MIC ([16]; Pasteurella multocida, 40G): 12.5 µg/mL (≈ 17.4 µM); MIC [17]; 34159: 50 µg/mL (≈ 69.5 µM); MIC ([18]; Staphylococcus epidermidis, EPI1): 0.25 µg/mL (≈ 0.347 µM); ED50 ([20]; C203, mice, oral, read-out: ED50 Oral): > 50 mg/kg; ED50 ([20]; C203, sc, mice, subcutaneous, read-out: ED50 Subcutaneous): > 10 mg/kg; MIC ([21]; Haemophilus influenzae): 32 µg/mL (≈ 44.4 µM); MIC ([22]; agar-dilution, Haemophilus influenzae 76, Ampicillin-resistant strain, read-out: MIC): 16 µg/mL (≈ 22.2 µM) |
| CCC1OC(=O)CC(O)C(C)C(OC2OC(C)C(O)C(N(C)C)C2O)C(CCN(C)C)CC(C)C(=O)C=CC(C)=CC1CO (stereo not drawn) [Compound 2, 20-N-Dimethylamino-20-deoxy-20-dihydro-OMT] | 128 µg/mL (≈ 204 µM) | > 128 µg/mL | 32 µg/mL (≈ 51.1 µM) | > 128 µg/mL | > 128 µg/mL | 32 µg/mL (≈ 51.1 µM) | > 128 µg/mL | 25 µg/mL (≈ 39.9 µM) | > 50 µg/mL | 50 µg/mL (≈ 79.8 µM) | 50 µg/mL (≈ 79.8 µM) | 25 µg/mL (≈ 39.9 µM) | 50 µg/mL (≈ 79.8 µM) | 50 µg/mL (≈ 79.8 µM) | 50 µg/mL (≈ 79.8 µM) | 32 µg/mL (≈ 51.1 µM) | 64 µg/mL (≈ 102 µM) | 64 µg/mL (≈ 102 µM) | MIC ([1]; Streptococcus pyogenes, C203): 32 µg/mL (≈ 51.1 µM); MIC [25]: 32 µg/mL (≈ 51.1 µM); MIC ([7]; agar-dilution, Klebsiella pneumoniae X26, read-out: MIC): 16 µg/mL (≈ 25.5 µM); MIC (Streptococcus sp. 80; broth-dilution microtiter, Streptococcus sp. 80, read-out: MIC): 25 µg/mL (≈ 39.9 µM); MIC ([9]; broth-dilution microtiter, Pasteurella multocida 68C, read-out: MIC): 12.5 µg/mL (≈ 19.9 µM); MIC (Mycoplasma gallisepticum; broth-dilution microtiter, Mycoplasma gallisepticum, read-out: MIC): 50 µg/mL (≈ 79.8 µM); MIC ([10]; broth-dilution microtiter, Mycoplasma gallisepticum 41313, Resistant strain, read-out: MIC): 50 µg/mL (≈ 79.8 µM); MIC ([14]; broth-dilution microtiter, Pasteurella multocida 22A, read-out: MIC): 25 µg/mL (≈ 39.9 µM); MIC ([16]; broth-dilution microtiter, Pasteurella multocida 40G, read-out: MIC): 50 µg/mL (≈ 79.8 µM); MIC ([17]; broth-dilution microtiter, Mycoplasma gallisepticum 34159, Resistant strain, read-out: MIC): > 50 µg/mL; MIC ([18]; agar-dilution, Staphylococcus epidermidis EPI1, read-out: MIC): 16 µg/mL (≈ 25.5 µM); MIC ([21]; agar-dilution, Haemophilus influenzae C.L., Ampicillin-sensitive strain, read-out: MIC): 16 µg/mL (≈ 25.5 µM); MIC ([22]; Haemophilus influenzae, 76): 32 µg/mL (≈ 51.1 µM) |
